Data: paper PMC6084781 (Cancer letters, 2018)

Legend:
ABCB1 = ABCB1 (Homo sapiens, UniProt P08183); assay: vanadate-sensitive ATPase stimulation in membrane vesicles; assay type: biochemical
ABCG2 = target: T1, ABCG2 (Homo sapiens, UniProt Q9UNQ0); assay: as above; assay type: biochemical
T1 sequence (Q9UNQ0 1-655): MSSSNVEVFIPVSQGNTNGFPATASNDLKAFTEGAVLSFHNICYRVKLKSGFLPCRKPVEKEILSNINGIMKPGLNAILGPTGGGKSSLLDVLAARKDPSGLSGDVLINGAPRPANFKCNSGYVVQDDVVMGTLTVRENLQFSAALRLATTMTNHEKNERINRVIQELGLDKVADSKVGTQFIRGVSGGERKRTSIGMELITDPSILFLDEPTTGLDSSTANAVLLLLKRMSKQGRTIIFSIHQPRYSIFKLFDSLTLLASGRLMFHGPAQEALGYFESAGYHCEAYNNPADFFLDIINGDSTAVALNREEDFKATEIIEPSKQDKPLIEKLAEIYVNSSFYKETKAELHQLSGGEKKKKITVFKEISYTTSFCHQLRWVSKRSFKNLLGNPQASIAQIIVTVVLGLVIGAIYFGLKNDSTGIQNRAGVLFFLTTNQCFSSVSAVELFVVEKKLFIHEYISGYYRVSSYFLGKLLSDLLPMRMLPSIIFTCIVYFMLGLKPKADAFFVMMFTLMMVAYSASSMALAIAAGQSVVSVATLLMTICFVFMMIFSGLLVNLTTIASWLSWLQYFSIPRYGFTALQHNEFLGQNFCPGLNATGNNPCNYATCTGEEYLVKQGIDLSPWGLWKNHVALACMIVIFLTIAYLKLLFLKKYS

Sequence of ABCB1 (P08183 whole entry): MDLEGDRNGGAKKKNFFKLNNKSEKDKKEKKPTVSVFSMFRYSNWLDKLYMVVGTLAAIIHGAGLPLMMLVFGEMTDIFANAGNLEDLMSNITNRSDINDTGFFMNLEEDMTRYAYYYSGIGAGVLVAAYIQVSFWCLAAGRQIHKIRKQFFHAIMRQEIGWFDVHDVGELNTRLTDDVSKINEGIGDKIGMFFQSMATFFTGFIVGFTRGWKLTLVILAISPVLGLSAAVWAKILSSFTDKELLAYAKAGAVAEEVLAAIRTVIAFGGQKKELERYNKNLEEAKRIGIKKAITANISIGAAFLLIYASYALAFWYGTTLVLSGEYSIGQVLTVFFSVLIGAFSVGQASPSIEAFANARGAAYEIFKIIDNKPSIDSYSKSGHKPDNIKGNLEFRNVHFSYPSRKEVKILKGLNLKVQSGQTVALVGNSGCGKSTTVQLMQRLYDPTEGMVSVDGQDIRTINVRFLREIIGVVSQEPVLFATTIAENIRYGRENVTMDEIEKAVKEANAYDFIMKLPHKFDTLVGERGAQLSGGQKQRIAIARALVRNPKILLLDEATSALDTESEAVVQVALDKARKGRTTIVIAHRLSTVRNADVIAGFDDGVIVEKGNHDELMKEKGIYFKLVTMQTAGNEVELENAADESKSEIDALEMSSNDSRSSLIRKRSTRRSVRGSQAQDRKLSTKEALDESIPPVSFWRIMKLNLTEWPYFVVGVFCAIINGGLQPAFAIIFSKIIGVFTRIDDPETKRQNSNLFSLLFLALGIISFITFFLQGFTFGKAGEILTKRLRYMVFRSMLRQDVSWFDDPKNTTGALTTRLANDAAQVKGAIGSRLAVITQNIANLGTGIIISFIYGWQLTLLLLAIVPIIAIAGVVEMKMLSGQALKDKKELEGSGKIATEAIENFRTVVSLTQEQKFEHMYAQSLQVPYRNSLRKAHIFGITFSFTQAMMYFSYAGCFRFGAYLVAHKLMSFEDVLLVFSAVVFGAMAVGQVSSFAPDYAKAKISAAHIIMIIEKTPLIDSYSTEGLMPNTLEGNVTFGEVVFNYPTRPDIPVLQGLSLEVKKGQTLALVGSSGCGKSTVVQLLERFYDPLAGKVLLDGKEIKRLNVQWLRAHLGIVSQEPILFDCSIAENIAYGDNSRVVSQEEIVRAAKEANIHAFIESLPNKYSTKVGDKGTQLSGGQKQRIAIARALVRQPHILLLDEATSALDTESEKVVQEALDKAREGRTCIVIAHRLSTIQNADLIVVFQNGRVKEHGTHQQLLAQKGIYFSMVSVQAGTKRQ

## COc1cc2c(cc1OC)CN(C(=O)/C=C/c1c(-c3ccccc3)n(C)c3ncccc13)CC2 [SIS3]
ABCB1
  EC50: ~160 nM
ABCG2
  EC50: ~60 nM
